Reference: patent US5756345A, “Production of tryptophan by the bacterium Escherichia coli” (Degussa Aktiengesellschaft, priority 1995, dated 1998)
pIC50: −log10 of the molar value. Where two headings read alike, the source gives them in different places.

Legend:
[1] = target: anthranilate synthase encoded by trpE382 (Escherichia coli, UniProt P00895); assay: Feedback inhibition of anthranilate synthase by tryptophan, trpE382 enzyme; format: biochemical
[2] = tested on: tryptophan auxotroph unable to actively transport tryptophan (JP7847); assay: Growth response to tryptophan, trpS+ auxotroph defective in active transport; format: cell-based, Escherichia coli; conditions: minimal medium
Description: (§1) JP6006 is derived from JP4153 by introduction of ΔtrpLE1413 by P1 transduction using TN10 as a linked marker and isolation of a tetracycline-sensitive derivative, followed by introduction of sac^+ by P1 transduction, using a P1 lysate grown on sac^+ strain GA122 (Alaeddinoglu, N. G. and H. P. Charles. (1979). J. Gen. Microbiol. 110: 47-59). JP4153 is aroF363 aroG103(FBR) aroH371(FBR) trpE382(FBR) trpR363 tyrR366 trpS378 aroP579 mtr-24 tna-1. JP7847 is a trpS^+ derivative of JP6006, isolated by P1 transduction.
(§2) Cells were grown in minimal medium supplemented with different levels of tryptophan at 30° C. Growth was measured by optical density with a Klett colorimeter and doubling times were calculated from the exponential phase of each growth curve.

[3] = tested on: anthranilate synthase of feedback-resistant mutants; conditions: cited from earlier work
[4] = tested on: anthranilate synthase (wild-type strains); conditions: read-out: tryptophan concentration giving about 50% inhibition of anthranilate synthase activity; cited from earlier work
[5] = tested on: tryptophan auxotrophs with wild-type trpS allele able to actively transport tryptophan; assay: Growth response to tryptophan, auxotrophs with wild-type trpS and active transport; format: cell-based, Escherichia coli; conditions: minimal medium
[6] = tested on: transport negative tryptophan auxotroph carrying trpS378 (JP6006); assay: Growth response to tryptophan, trpS378 auxotroph defective in active transport; format: cell-based, Escherichia coli
Description: as §1, §2

[7] = target: anthranilate synthase encoded by trpE483 (Escherichia coli, UniProt P00895); assay: Feedback inhibition of anthranilate synthase by tryptophan, trpE483 enzyme; format: biochemical; conditions: tryptophan 13.5 g/l
Description: Plasmid pMU3018 (FIG. 6) carries the tip promoter, the trpE gene and part of the trpD gene on a 2.9 kb SmaI HindIII fragment. pMU3018 is derived from pMU578, which is a single-copy Tp^R plasmid carrying a galK'-lac'ZA fusion, similar to the promoter cloning vector pMU575 (Andrews, A. E., B. Lawley, and A. J. Pittard. (1991). J. Bacteriol. 173: 5068-5078), but with a SmaI EcoRI BglII linker replacing the SmaI site, and the DraI fragments removed, deleting lacY and lacA. If pMU3018 DNA is digested with these two enzymes and the fragments electrophoresed in a low melting point agarose gel it is a simple matter to separate and purify the trpEtrpD' 2.9 kb fragment and the larger 13 kb vector fragment. This 2.9 kb fragment was mutagenised with 50 mM nitrous acid for 60 minutes following the method of Ray et al. (Ray, J. M., C. Yanofsky and R. Bauerle. (1988). J. Bacteriol. 170: 5500-5506), except that spermine (1 mM) was added to the mutagenesis mixture. […]

[8] = target: T1, anthranilate synthase encoded by trpE476 (Escherichia coli, UniProt P00895); assay: Feedback inhibition of anthranilate synthase by tryptophan, trpE476 enzyme; format: biochemical
T1 construct: plasmid pMU3019 in trpE-deleted JP6768 (trpDCBA functional), also trpE476DCBA on pMU91
Description: Plasmid pMU3018 (FIG. 6) carries the tip promoter, the trpE gene and part of the trpD gene on a 2.9 kb SmaI HindIII fragment. pMU3018 is derived from pMU578, which is a single-copy Tp^R plasmid carrying a galK'-lac'ZA fusion, similar to the promoter cloning vector pMU575 (Andrews, A. E., B. Lawley, and A. J. Pittard. (1991). J. Bacteriol. 173: 5068-5078), but with a SmaI EcoRI BglII linker replacing the SmaI site, and the DraI fragments removed, deleting lacY and lacA. If pMU3018 DNA is digested with these two enzymes and the fragments electrophoresed in a low melting point agarose gel it is a simple matter to separate and purify the trpEtrpD' 2.9 kb fragment and the larger 13 kb vector fragment. This 2.9 kb fragment was mutagenised with 50 mM nitrous acid for 60 minutes following the method of Ray et al. (Ray, J. M., C. Yanofsky and R. Bauerle. (1988). J. Bacteriol. 170: 5500-5506), except that spermine (1 mM) was added to the mutagenesis mixture. After mutagenesis, the fragment was religated with the larger 13 kb fragment and the products of ligation were transformed into strain JP6768, an E. coli strain which is trpR^-, and in which the trpE gene has been deleted from the chromosome but trpDCB and A are fully functional (ΔtrpLE1413 (Miozzari, G. F. and C. Yanofsky. (1978). J. Bacteriol. 133: 1457-1466). Approximately 2,000 transformants were selected on Luria agar containing trimethoprim. These were screened for growth on minimal medium supplemented with the tryptophan analogue 5-fluorotryptophan at 15 mM. Clones which grew were potential feedback-resistant mutants altered in the enzyme anthranilate synthase. The anthranilate synthase activity of each of these clones was assayed in the presence of very high levels of tryptophan (13.5 g/l) using the assay described in Cho, K-O. and C. Yanofsky. (1988). J. Mol. Biol. 204: 41-50. […] The mutant allele present in this strain was called trpE483. […] FIG. 4 compares the feedback sensitivity of anthranilate synthase from a strain with the wild-type allele (JP6768/pMU3018) and strains with the trpE483 allele (JP6768/pMU3025) and with the trpE476 allele (JP6768/pMU3019).
The effect of temperature of incubation on both stability and productivity for an overproducing strain carrying the trpS378 allele and a plasmid carrying the trp operon encoding a feedback-resistant anthranilate synthase, is shown in FIG. 2. Low temperatures favour high stability and low productivity, whilst higher temperatures favour productivity at the expense of stability. […] The data in FIG. 2 is for JP6015/pMU91 and the primary selection is for Ser^+. JP6015 is derived from JP4153 (see Example 4) by introduction of sac^+ by transduction,and introduction of serA^- by cotransduction with a closely linked Tn10 transposon, and subsequent selection of a tetracycline sensitive derivative. pMU91 is a plasmid derived from pSC101 (Cohen, S. N. and A. C. Chang (1977). J. Bacteriol. 132: 734-737), carrying Tc^R, trpE476DCBA and serA^+ (see FIG. 9). The trpE476DCBA alelle was isolated using the specialized transducing phage .PHI.80pt190h (Herschfield, V. et al (1974). Proc. Natl. Acad. Sci. USA 71:3455-3459). A trpE^- strain carrying .PHI.80pt190h was plated on minimal medium containing 1 mM 5-methyltryptophan (5MT). A pool of cells was induced by ultraviolet light to produce a lysate which was used in a subsequent transduction, selecting Trp^+ 5MTR transductants. […]

## N[C@@H](Cc1c[nH]c2ccccc12)C(=O)O [tryptophan, L-tryptophan]
[1]; 1 mM tryptophan
  inhibition of activity: less than 10%
[1]; tryptophan 12 g/l (60 mM)
  inhibition of anthranilate synthase: 60-80%
[2]
  tryptophan level required for optimal growth: ~ 10^-3 M
[2]; FIG. 1
  tryptophan level at which the strain grows with a normal doubling time: ≥ 1 mM
[3]; mutants conferring higher feedback-resistance (Aiba et al. 1982), read-out: 50% inhibition values
  pIC50: < 1.70
[3]; mutants typically chosen for tryptophan overproduction (Aiba et al., CA 1182409), read-out: tryptophan concentration at which the 50% inhibition figure occurred
  pIC50: ~1.89
[4]
  pIC50: ~4.70
[5]
  tryptophan level supporting growth at a fast rate: 50 µM
[6]; 30° C., FIG. 1
  tryptophan required for good growth: at least 5 mM
[6]; minimal medium
  tryptophan concentration before maximum growth rate is achieved: 5 mM
[7]
  inhibition of activity: less than 10%
[8]; 1 mM tryptophan
  inhibition of activity: less than 10%
[8]; 10 mM L-tryptophan
  anthranilate synthase activity, % of full activity: 70%
[8]; tryptophan 1 g/l
  resistance to feedback inhibition: good resistance
[8]; tryptophan 12 g/l (60 mM)
  inhibition of anthranilate synthase: 60-80%
[8]; tryptophan 13.5 g/l
  inhibition of activity: more than 60%
